In ChEMBL document CHEMBL1201862, “PubChem BioAssay data set” (2004):
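Protocol summary: plate cells (96-well), add compound at 5 concentrations, incubate 48 h, interpolate endpoints linearly. At the GI50, growth is halved.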 Calls of active or inactive are those of the source. Cut-off read from the data, not from the text of the source: active = GI50 up to about 1.1 µM and inactive = higher.

How the values were obtained:
Assay in all cases: NCI anticancer screen, dose series, 48 h
Malme-3M = test system: Malme-3M
SNB-78 = test system: SNB-78
SF-539 = test system: SF-539
SK-MEL-28 = test system: SK-MEL-28
OVCAR-4 = test system: OVCAR-4
SF-268 = test system: SF-268
OVCAR-8 = test system: OVCAR-8
IGROV-1 = test system: IGROV-1
HCT-15 = test system: HCT-15
UACC-62 = test system: UACC-62
HT-29 = test system: HT-29
RXF 393 = test system: RXF 393
LOX IMVI = test system: LOX IMVI
MOLT-4 = test system: MOLT-4
SNB-19 = test system: SNB-19
SF-295 = test system: SF-295
NCI-H460 = test system: NCI-H460
KM-20L2 = test system: KM-20L2
DLD-1 = test system: DLD-1
UACC-257 = test system: UACC-257
NCI-H226 = test system: NCI-H226
HCC 2998 = test system: HCC 2998
DMS-273 = test system: DMS-273
ACHN = test system: ACHN
HOP-62 = test system: HOP-62
EKVX = test system: EKVX
HCT-116 = test system: HCT-116
SK-MEL-5 = test system: SK-MEL-5
UO-31 = test system: UO-31
KM12 = test system: KM12
SNB-75 = test system: SNB-75
M14 = test system: M14
LXFL 529 = test system: LXFL 529
U-251 = test system: U-251
SN12C = test system: SN12C
CCRF-CEM = test system: CCRF-CEM
786-0 = test system: 786-0
SK-MEL-2 = test system: SK-MEL-2
SK-OV-3 = test system: SK-OV-3
TK-10 = test system: TK-10
OVCAR-3 = test system: OVCAR-3
NCI-H522 = test system: NCI-H522
M19-MEL = test system: M19-MEL
NCI-H23 = test system: NCI-H23
SR = test system: SR
SW-620 = test system: SW-620
K562 = test system: K562
HL-60 = test system: HL-60
COLO 205 = test system: COLO 205
HOP-92 = test system: HOP-92
A549 = test system: A549
RPMI-8226 = test system: RPMI-8226
CAKI-1 = test system: CAKI-1
DMS-114 = test system: DMS-114
HOP-18 = test system: HOP-18
XF498 = test system: XF498

## CCC(CC)n1c(C)nc2c1C(=O)c1ccccc1C2=O
Malme-3M
  GI50: 26.1 µM (inactive)
SNB-78
  GI50: 49.7 µM (inactive)
SF-539
  GI50: 34 µM (inactive)
SK-MEL-28
  GI50: 49.3 µM (inactive)
OVCAR-4
  GI50: 40.7 µM (inactive)
SF-268
  GI50: 49.2 µM (inactive)
OVCAR-8
  GI50: 40.5 µM (inactive)
IGROV-1
  GI50: 71.9 µM (inactive)
HCT-15
  GI50: 9.18 µM
UACC-62
  GI50: 10.3 µM (inactive)
HT-29
  GI50: 33.2 µM (inactive)
RXF 393
  GI50: 35.2 µM (inactive)
LOX IMVI
  GI50: 19.5 µM (inactive)
MOLT-4
  GI50: 41.2 µM (inactive)
SNB-19
  GI50: 71.1 µM (inactive)
SF-295
  GI50: 39.4 µM (inactive)
NCI-H460
  GI50: 20.7 µM (inactive)
KM-20L2
  GI50: 39.4 µM (inactive)
DLD-1
  GI50: 24.3 µM (inactive)
UACC-257
  GI50: 24 µM (inactive)
NCI-H226
  GI50: 72.8 µM (inactive)
HCC 2998
  GI50: 77.4 µM (inactive)
DMS-273
  GI50: 23.1 µM (inactive)
ACHN
  GI50: 41.4 µM (inactive)
HOP-62
  GI50: 33.4 µM (inactive)
EKVX
  GI50: 70.5 µM (inactive)
HCT-116
  GI50: 19.3 µM (inactive)
SK-MEL-5
  GI50: 15.7 µM (inactive)
UO-31
  GI50: 19.5 µM (inactive)
KM12
  GI50: 36.9 µM (inactive)
SNB-75
  GI50: 20.6 µM (inactive)
M14
  GI50: 63.1 µM (inactive)
LXFL 529
  GI50: 19.5 µM (inactive)
U-251
  GI50: 36.5 µM (inactive)
SN12C
  GI50: 46.3 µM (inactive)
CCRF-CEM
  GI50: 42.6 µM (inactive)
786-0
  GI50: 57.1 µM (inactive)
SK-MEL-2
  GI50: 27.6 µM (inactive)
SK-OV-3
  GI50: > 100 µM (inactive)
TK-10
  GI50: 35.9 µM (inactive)
OVCAR-3
  GI50: 26 µM (inactive)
NCI-H522
  GI50: 48.1 µM (inactive)
M19-MEL
  GI50: 14.9 µM (inactive)
NCI-H23
  GI50: 21.5 µM (inactive)
SR
  GI50: 25.8 µM (inactive)
SW-620
  GI50: 52.2 µM (inactive)
K562
  GI50: 21.1 µM (inactive)
HL-60
  GI50: 10.7 µM (inactive)
COLO 205
  GI50: 26.9 µM (inactive)
HOP-92
  GI50: 22.5 µM (inactive)
A549
  GI50: 35.3 µM (inactive)

## CSc1nc(NC2OC(COC(C)=O)C(OC(C)=O)C(OC(C)=O)C2OC(C)=O)c(/N=C(\C)C(C)=O)c(=O)n1C (stereo unspecified)
Malme-3M
  GI50: > 100 µM (inactive)
SNB-78
  GI50: > 100 µM (inactive)
RPMI-8226
  GI50: > 100 µM (inactive)
SF-539
  GI50: > 100 µM (inactive)
OVCAR-4
  GI50: > 100 µM (inactive)
OVCAR-8
  GI50: > 100 µM (inactive)
IGROV-1
  GI50: > 100 µM (inactive)
UACC-62
  GI50: > 100 µM (inactive)
HT-29
  GI50: > 100 µM (inactive)
MOLT-4
  GI50: > 100 µM (inactive)
SNB-19
  GI50: > 100 µM (inactive)
CAKI-1
  GI50: > 100 µM (inactive)
SF-295
  GI50: > 100 µM (inactive)
DLD-1
  GI50: > 100 µM (inactive)
DMS-114
  GI50: > 100 µM (inactive)
UACC-257
  GI50: > 100 µM (inactive)
NCI-H226
  GI50: > 100 µM (inactive)
HCC 2998
  GI50: > 100 µM (inactive)
HOP-62
  GI50: > 100 µM (inactive)
EKVX
  GI50: > 100 µM (inactive)
HCT-116
  GI50: > 100 µM (inactive)
SK-MEL-5
  GI50: > 100 µM (inactive)
UO-31
  GI50: > 100 µM (inactive)
KM12
  GI50: > 100 µM (inactive)
M14
  GI50: > 100 µM (inactive)
LXFL 529
  GI50: > 100 µM (inactive)
CCRF-CEM
  GI50: > 100 µM (inactive)
786-0
  GI50: > 100 µM (inactive)
SK-MEL-2
  GI50: > 100 µM (inactive)
HOP-18
  GI50: > 100 µM (inactive)
SK-OV-3
  GI50: > 100 µM (inactive)
TK-10
  GI50: > 100 µM (inactive)
OVCAR-3
  GI50: > 100 µM (inactive)
M19-MEL
  GI50: > 100 µM (inactive)
SW-620
  GI50: > 100 µM (inactive)
K562
  GI50: > 100 µM (inactive)
HL-60
  GI50: > 100 µM (inactive)
COLO 205
  GI50: > 100 µM (inactive)
HOP-92
  GI50: > 100 µM (inactive)
A549
  GI50: > 100 µM (inactive)

## O=c1oc(-c2ccccc2)cn1-c1ccccc1
SNB-78
  GI50: > 100 µM (inactive)
RPMI-8226
  GI50: > 100 µM (inactive)
SF-539
  GI50: 88.7 µM (inactive)
SK-MEL-28
  GI50: > 100 µM (inactive)
OVCAR-4
  GI50: > 10 µM (inactive)
RXF 393
  GI50: > 100 µM (inactive)
LOX IMVI
  GI50: 94.8 µM (inactive)
MOLT-4
  GI50: > 100 µM (inactive)
SNB-19
  GI50: > 100 µM (inactive)
NCI-H460
  GI50: > 100 µM (inactive)
KM-20L2
  GI50: 94.8 µM (inactive)
DLD-1
  GI50: > 100 µM (inactive)
XF498
  GI50: > 100 µM (inactive)
NCI-H226
  GI50: > 100 µM (inactive)
HCC 2998
  GI50: > 100 µM (inactive)
DMS-273
  GI50: > 100 µM (inactive)
HOP-62
  GI50: > 100 µM (inactive)
HCT-116
  GI50: > 100 µM (inactive)
SNB-75
  GI50: > 100 µM (inactive)
M14
  GI50: > 100 µM (inactive)
LXFL 529
  GI50: > 100 µM (inactive)
U-251
  GI50: > 100 µM (inactive)
SN12C
  GI50: > 100 µM (inactive)
CCRF-CEM
  GI50: > 100 µM (inactive)
786-0
  GI50: > 100 µM (inactive)
HOP-18
  GI50: 95.3 µM (inactive)
NCI-H522
  GI50: 70.8 µM (inactive)
NCI-H23
  GI50: > 100 µM (inactive)
K562
  GI50: > 100 µM (inactive)
HL-60
  GI50: > 100 µM (inactive)
